Data from PubChem BioAssay AID248 (DTP/NCI, 2004).
“And” between values parts separate entries of the source, which are not always exact repeats. Equal values may be shown once. Toxic doses and inconclusive results are not listed. Cut-off read from the data, not from the text of the source: active = T/C of 150% or more; inactive = T/C below 125%.

Tested on: L1210 leukemia ip in BDF1 mice, survival T/C
Assay: NCI In Vivo Anticancer Drug Screen. Data for tumor model L1210 Leukemia (intraperitoneal) in B6D2F1 (BDF1) mice
Conditions: endpoint: mean survival time, higher = longer survival
Outline: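 Transplantable tumor model; survival measured in treated vs vehicle control mice. Value = treated/control.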

[1] = dose: 100.0 mg/kg/injection, schedule: Q01DX001 (ip), vehicle: other
[2] = dose: 200.0 mg/kg/injection, schedule: Q01DX001 (ip), vehicle: other
[3] = dose: 25.0 mg/kg/injection, schedule: Q01DX009 (ip), vehicle: saline
[4] = dose: 50.0 mg/kg/injection, schedule: Q01DX009 (ip), vehicle: saline
[5] = dose: 100.0 mg/kg/injection, schedule: Q01DX009 (ip), vehicle: saline
[6] = dose: 75.0 mg/kg/injection, schedule: Q01DX001 (ip), vehicle: saline
[7] = dose: 150.0 mg/kg/injection, schedule: Q01DX001 (ip), vehicle: saline
[8] = dose: 100.0 mg/kg/injection, schedule: Q01DX001 (ip), vehicle: saline with Tween-80
[9] = dose: 200.0 mg/kg/injection, schedule: Q01DX001 (ip), vehicle: saline with Tween-80
[10] = dose: 400.0 mg/kg/injection, schedule: Q01DX001 (ip), vehicle: saline with Tween-80
[11] = dose: 100.0 mg/kg/injection, schedule: Q04DX003 (ip), vehicle: saline
[12] = dose: 100.0 mg/kg/injection, schedule: Q01DX009 (ip), vehicle: Klucel (hydroxypropylcellulose) (HPC)
[13] = dose: 100.0 mg/kg/injection, schedule: Q04DX003 (ip), vehicle: Klucel (hydroxypropylcellulose) (HPC)
[14] = dose: 200.0 mg/kg/injection, schedule: Q01DX009 (ip), vehicle: Klucel (hydroxypropylcellulose) (HPC)
[15] = dose: 200.0 mg/kg/injection, schedule: Q04DX003 (ip), vehicle: Klucel (hydroxypropylcellulose) (HPC)
[16] = dose: 400.0 mg/kg/injection, schedule: Q04DX003 (ip), vehicle: Klucel (hydroxypropylcellulose) (HPC)
[17] = dose: 100.0 mg/kg/injection, schedule: Q01DX009 (ip), vehicle: saline with Tween-80
[18] = dose: 200.0 mg/kg/injection, schedule: Q01DX009 (ip), vehicle: saline with Tween-80
[19] = dose: 100.0 mg/kg/injection, schedule: Q04DX003 (ip), vehicle: saline with Tween-80
[20] = dose: 200.0 mg/kg/injection, schedule: Q04DX003 (ip), vehicle: saline with Tween-80
[21] = dose: 400.0 mg/kg/injection, schedule: Q04DX003 (ip), vehicle: saline with Tween-80
[22] = dose: 400.0 mg/kg/injection, schedule: Q01DX009 (ip), vehicle: Klucel (hydroxypropylcellulose) (HPC)

Measured: T/C

CCOC(=O)Nc1cc2c(c(N)n1)N=C(CN(C)c1ccc(C(=O)OC)cc1)CN2
inactive: dose: 5.0 mg/kg/injection, schedule: Q01DX009 (ip), vehicle: saline with Tween-80 105 % of control | dose: 10.0 mg/kg/injection, schedule: Q01DX009 (ip), vehicle: saline with Tween-80 118 % of control | dose: 20.0 mg/kg/injection, schedule: Q01DX009 (ip), vehicle: saline with Tween-80 124 % of control | [1] 107 % of control | [2] 111 % of control

COC(=O)c1[nH]nc(-c2ccccc2-c2ccccc2C(=O)O)c1C(=O)OC
inactive: dose: 100.0 mg/kg/injection, schedule: Q04DX002 (ip), vehicle: Klucel (hydroxypropylcellulose) (HPC) 97 % of control | dose: 200.0 mg/kg/injection, schedule: Q04DX002 (ip), vehicle: Klucel (hydroxypropylcellulose) (HPC) 108 % of control | dose: 400.0 mg/kg/injection, schedule: Q04DX002 (ip), vehicle: Klucel (hydroxypropylcellulose) (HPC) 105 % of control

CCOC(=O)/C=C/c1nc(N)[nH]c(=O)c1CCCCc1ccccc1
inactive: dose: 50.0 mg/kg/injection, schedule: Q01DX001 (ip), vehicle: Klucel (hydroxypropylcellulose) (HPC) 122 % of control | dose: 100.0 mg/kg/injection, schedule: Q01DX001 (ip), vehicle: Klucel (hydroxypropylcellulose) (HPC) 119 % of control | dose: 200.0 mg/kg/injection, schedule: Q01DX001 (ip), vehicle: Klucel (hydroxypropylcellulose) (HPC) 111 % of control

Cc1noc(N)c1[N+](=O)[O-]
inactive: dose: 12.5 mg/kg/injection, schedule: Q01DX009 (ip), vehicle: saline 97 % of control | [3] 109 % of control | [4] 97 % of control | [5] 86 % of control | dose: 100.0 mg/kg/injection, schedule: Q04DX003 (ip), vehicle: other 92 % of control | dose: 200.0 mg/kg/injection, schedule: Q04DX003 (ip), vehicle: other 96 % of control | dose: 400.0 mg/kg/injection, schedule: Q04DX003 (ip), vehicle: other 92 % of control

O=CN/N=C/c1ccc(Cl)cc1Cl
inactive: [6] 95 % of control | [7] 104 % of control

CCCCCCCCCCC(CCCCCC)C(=O)O (centres undefined)
inactive: [8] 95 % of control | [9] 96 % of control | [10] 90 % of control

O=S(=O)(Cc1ccccc1)C(CCCc1ccccc1)S(=O)(=O)Cc1ccccc1
inactive: dose: 100.0 mg/kg/injection, schedule: Q01DX001 (ip), vehicle: carboxymethylcellulose (CMC) 97 % of control | dose: 200.0 mg/kg/injection, schedule: Q01DX001 (ip), vehicle: carboxymethylcellulose (CMC) 92 % of control | dose: 400.0 mg/kg/injection, schedule: Q01DX001 (ip), vehicle: carboxymethylcellulose (CMC) 91 % of control

COC1OC(CN(CCO)CCO)C2OC(C)(C)OC12 (centres undefined)
inactive: dose: 12.5 mg/kg/injection, schedule: Q04DX003 (ip), vehicle: saline 97 % of control | [3] 98 % of control | dose: 25.0 mg/kg/injection, schedule: Q04DX003 (ip), vehicle: saline 89 % of control | [4] 94 % of control | dose: 50.0 mg/kg/injection, schedule: Q04DX003 (ip), vehicle: saline 97 % of control | [5] 89 % of control | [11] 94 % of control | dose: 335.0 mg/kg/injection, schedule: Q01DX009 (ip), vehicle: saline 101 % of control

COc1ccc(C=C2C3C=CC2C2C(=O)OC(=O)C32)cc1 (centres undefined)
inactive: [12] 101 % of control | [13] 99 % of control | [14] 97 % of control | [15] 99 % of control | [16] 89 % of control

COc1cc2c3c(c1)/C(=N\Nc1ccccc1)CCN3CCC2
inactive: dose: 6.25 mg/kg/injection, schedule: Q01DX009 (ip), vehicle: DMSO 90 % of control | dose: 12.5 mg/kg/injection, schedule: Q01DX009 (ip), vehicle: DMSO 91 % of control | dose: 25.0 mg/kg/injection, schedule: Q01DX009 (ip), vehicle: DMSO 93 % of control and 90 % of control | dose: 25.0 mg/kg/injection, schedule: Q04DX003 (ip), vehicle: DMSO 95 % of control | dose: 50.0 mg/kg/injection, schedule: Q04DX003 (ip), vehicle: DMSO 95 % of control | dose: 100.0 mg/kg/injection, schedule: Q04DX003 (ip), vehicle: DMSO 100 % of control | dose: 200.0 mg/kg/injection, schedule: Q04DX003 (ip), vehicle: gum acacia 92 % of control

COc1ccc2nccc(C(=O)CCC3CCN(C(=O)c4ccc([N+](=O)[O-])cc4)CC3C(CBr)CCBr)c2c1 (centres undefined)
inactive: [1] 104 % of control | [2] 88 % of control | dose: 400.0 mg/kg/injection, schedule: Q01DX001 (ip), vehicle: other 111 % of control

Cc1cc(C)n2ncnc2n1
inactive: [17] 105 % of control | [18] 99 % of control

CC(C)Cc1ccc(N=Nc2ccccc2)cc1
inactive: [19] 93 % of control | [20] 93 % of control | [21] 88 % of control

O=S1(=O)CS(=O)(=O)CS(=O)(=O)C1
inactive: dose: 100.0 mg/kg/injection, schedule: Q04DX002 (ip), vehicle: saline 108 % of control | dose: 200.0 mg/kg/injection, schedule: Q04DX002 (ip), vehicle: saline 119 % of control | dose: 400.0 mg/kg/injection, schedule: Q04DX002 (ip), vehicle: saline 101 % of control

COc1cc(C2CC(C)=C(C)CC2C(=O)O)cc(OC)c1OC (centres undefined)
inactive: [19] 92 % of control | [20] 97 % of control | [21] 96 % of control

O=[N+]([O-])c1cccc(NCn2c(=S)[nH]c3ccccc32)c1
inactive: [12] 102 % of control | [14] 106 % of control

C=CCCC1(Cc2ccccc2)C(=O)NC(=O)NC1=O
inactive: [6] 97 % of control | [7] 97 % of control

CCC(C)NC(=O)C1C2CC3OC(=O)C1C3C2 (centres undefined)
inactive: [19] 106 % of control and 98 % of control | [20] 101 % of control and 98 % of control | [21] 95 % of control and 98 % of control

CC(C)(C)C(=O)CC(=O)C(C)(C)C.CC(C)(C)C(=O)CC(=O)C(C)(C)C.CC(C)(C)C(=O)CC(=O)C(C)(C)C.[Pr]
inactive: [8] 100 % of control | [17] 98 % of control | [9] 97 % of control | [18] 88 % of control | [10] 89 % of control

O=S(=O)(Nc1c(Cl)c(Cl)c(NS(=O)(=O)c2ccccc2)c(Cl)c1Cl)c1ccccc1
inactive: [12] 103 % of control | [14] 111 % of control | [22] 103 % of control

CC1c2c(-c3ccccc3)oc(-c3ccccc3)c2C(C)C(Br)C1Br (centres undefined)
inactive: [12] 121 % of control | [13] 103 % of control | [14] 104 % of control | [15] 90 % of control | [22] 109 % of control | [16] 92 % of control

CCOC(=O)C(C)(C)CSC(C)(C)C(=O)OCC
inactive: [11] 110 % of control | dose: 200.0 mg/kg/injection, schedule: Q04DX003 (ip), vehicle: saline 101 % of control | dose: 400.0 mg/kg/injection, schedule: Q04DX003 (ip), vehicle: saline 110 % of control
